Assay results reported in ChEMBL document CHEMBL5705888, “Substrate specificity and inhibitors of LRRK2, a protein kinase mutated in Parkinson's disease” (Biochem J, 2009).

Columns and labels:
[1] = molecular target: Insulin receptor-related protein (Homo sapiens) (UniProt P14616); assay: Inhibition of IRR (unknown origin) at 1 uM incubated for 30 mins in presence of [gamma-33P]ATP by multidrop micro reagent based assay relative to control
[2] = molecular target: Serine/threonine-protein kinase pim-1 (Homo sapiens) (UniProt P11309); assay: Inhibition of PIM1 (unknown origin) at 1 uM incubated for 30 mins in presence of [gamma-33P]ATP by multidrop micro reagent based assay relative to control; values are per cent of control
[3] = molecular target: T1, Serine/threonine-protein kinase Sgk1 (Homo sapiens) (UniProt O00141); assay: Residual activity of SGK1 (unknown origin) at 10 uM incubated for 30 mins in presence of [gamma-33P]ATP by multidrop micro reagent based assay relative to control
T1 sequence (whole entry): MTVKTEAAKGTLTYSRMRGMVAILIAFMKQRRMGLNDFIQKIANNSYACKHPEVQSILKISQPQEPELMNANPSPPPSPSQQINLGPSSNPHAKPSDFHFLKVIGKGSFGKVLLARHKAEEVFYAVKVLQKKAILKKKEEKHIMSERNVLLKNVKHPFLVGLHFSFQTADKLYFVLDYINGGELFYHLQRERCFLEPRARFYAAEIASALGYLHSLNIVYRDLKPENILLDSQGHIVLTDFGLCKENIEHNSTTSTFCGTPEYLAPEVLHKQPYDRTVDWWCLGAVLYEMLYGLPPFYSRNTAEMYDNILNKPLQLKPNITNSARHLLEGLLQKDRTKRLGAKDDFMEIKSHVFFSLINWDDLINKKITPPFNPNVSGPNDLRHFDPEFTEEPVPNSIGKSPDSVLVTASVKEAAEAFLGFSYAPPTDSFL

[4] = molecular target: Serine/threonine-protein kinase Nek6 (Homo sapiens) (UniProt Q9HC98); assay: Residual activity of NEK6 (unknown origin) at 10 uM incubated for 30 mins in presence of [gamma-33P]ATP by multidrop micro reagent based assay relative to control
[5] = molecular target: T2, Eukaryotic elongation factor 2 kinase (Homo sapiens) (UniProt O00418); assay: Inhibition of EF2K (unknown origin) at 10 uM incubated for 30 mins in presence of [gamma-33P]ATP by multidrop micro reagent based assay relative to control; values are per cent of control
T2 sequence (whole entry): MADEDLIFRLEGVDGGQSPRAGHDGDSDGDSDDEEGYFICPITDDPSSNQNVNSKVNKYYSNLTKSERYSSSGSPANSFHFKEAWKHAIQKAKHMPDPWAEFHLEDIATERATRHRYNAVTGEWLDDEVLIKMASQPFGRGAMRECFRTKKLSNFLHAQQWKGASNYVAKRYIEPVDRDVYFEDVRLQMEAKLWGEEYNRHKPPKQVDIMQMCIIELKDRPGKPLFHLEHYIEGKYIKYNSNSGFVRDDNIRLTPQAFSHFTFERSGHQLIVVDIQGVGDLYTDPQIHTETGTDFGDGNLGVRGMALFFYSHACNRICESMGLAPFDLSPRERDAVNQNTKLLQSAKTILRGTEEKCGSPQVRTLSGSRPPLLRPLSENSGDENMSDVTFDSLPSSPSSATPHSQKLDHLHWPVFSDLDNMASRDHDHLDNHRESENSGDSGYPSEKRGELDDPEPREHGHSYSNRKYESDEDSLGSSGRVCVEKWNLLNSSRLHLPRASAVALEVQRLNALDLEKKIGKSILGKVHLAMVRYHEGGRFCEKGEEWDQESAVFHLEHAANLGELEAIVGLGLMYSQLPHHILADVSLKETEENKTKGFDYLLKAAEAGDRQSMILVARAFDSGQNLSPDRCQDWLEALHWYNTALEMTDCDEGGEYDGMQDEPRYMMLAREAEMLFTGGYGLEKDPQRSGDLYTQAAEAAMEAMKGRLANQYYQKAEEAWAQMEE

[6] = molecular target: T3, Serine/threonine-protein kinase STK11 (Homo sapiens) (UniProt Q15831); assay: Inhibition of LKB1 (unknown origin) at 10 uM incubated for 30 mins in presence of [gamma-33P]ATP by multidrop micro reagent based assay relative to control; values are per cent of control
T3 sequence (whole entry): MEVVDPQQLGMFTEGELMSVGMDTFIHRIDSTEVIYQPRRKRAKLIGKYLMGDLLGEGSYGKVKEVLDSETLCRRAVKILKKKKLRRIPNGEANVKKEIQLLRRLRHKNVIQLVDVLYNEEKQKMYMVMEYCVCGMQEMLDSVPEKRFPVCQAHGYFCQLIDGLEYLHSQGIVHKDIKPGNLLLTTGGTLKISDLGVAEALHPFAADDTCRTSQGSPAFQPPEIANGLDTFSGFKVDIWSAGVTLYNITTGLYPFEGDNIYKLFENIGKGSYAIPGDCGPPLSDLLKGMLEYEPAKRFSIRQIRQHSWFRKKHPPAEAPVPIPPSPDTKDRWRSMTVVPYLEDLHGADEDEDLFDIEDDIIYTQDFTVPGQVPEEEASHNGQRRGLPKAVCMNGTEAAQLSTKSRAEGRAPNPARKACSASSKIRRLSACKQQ

[7] = molecular target: Myosin light chain kinase, smooth muscle (Homo sapiens) (UniProt Q15746); assay: Inhibition of SmMLCK (unknown origin) at 10 uM incubated for 30 mins in presence of [gamma-33P]ATP by multidrop micro reagent based assay relative to control; values are per cent of control
[8] = molecular target: Mitogen-activated protein kinase 11 (Homo sapiens) (UniProt Q15759); assay: Inhibition of p38beta MAPK (unknown origin) at 10 uM incubated for 30 mins in presence of [gamma-33P]ATP by multidrop micro reagent based assay relative to control; values are per cent of control
Sequence of Mitogen-activated protein kinase 11 (Homo sapiens) (Q15759 whole entry): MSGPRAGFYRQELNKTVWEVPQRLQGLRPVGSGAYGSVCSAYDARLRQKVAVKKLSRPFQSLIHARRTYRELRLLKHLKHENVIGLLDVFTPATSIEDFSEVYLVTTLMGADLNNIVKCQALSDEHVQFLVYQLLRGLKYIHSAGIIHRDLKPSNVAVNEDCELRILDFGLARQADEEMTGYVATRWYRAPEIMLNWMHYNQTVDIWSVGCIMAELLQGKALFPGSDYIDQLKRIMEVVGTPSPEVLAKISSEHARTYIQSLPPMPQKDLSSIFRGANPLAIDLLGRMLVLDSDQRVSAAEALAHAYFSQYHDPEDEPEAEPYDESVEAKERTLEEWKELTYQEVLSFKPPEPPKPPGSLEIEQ

Sequence of Insulin receptor-related protein (Homo sapiens) (P14616 27-742 limits assumed): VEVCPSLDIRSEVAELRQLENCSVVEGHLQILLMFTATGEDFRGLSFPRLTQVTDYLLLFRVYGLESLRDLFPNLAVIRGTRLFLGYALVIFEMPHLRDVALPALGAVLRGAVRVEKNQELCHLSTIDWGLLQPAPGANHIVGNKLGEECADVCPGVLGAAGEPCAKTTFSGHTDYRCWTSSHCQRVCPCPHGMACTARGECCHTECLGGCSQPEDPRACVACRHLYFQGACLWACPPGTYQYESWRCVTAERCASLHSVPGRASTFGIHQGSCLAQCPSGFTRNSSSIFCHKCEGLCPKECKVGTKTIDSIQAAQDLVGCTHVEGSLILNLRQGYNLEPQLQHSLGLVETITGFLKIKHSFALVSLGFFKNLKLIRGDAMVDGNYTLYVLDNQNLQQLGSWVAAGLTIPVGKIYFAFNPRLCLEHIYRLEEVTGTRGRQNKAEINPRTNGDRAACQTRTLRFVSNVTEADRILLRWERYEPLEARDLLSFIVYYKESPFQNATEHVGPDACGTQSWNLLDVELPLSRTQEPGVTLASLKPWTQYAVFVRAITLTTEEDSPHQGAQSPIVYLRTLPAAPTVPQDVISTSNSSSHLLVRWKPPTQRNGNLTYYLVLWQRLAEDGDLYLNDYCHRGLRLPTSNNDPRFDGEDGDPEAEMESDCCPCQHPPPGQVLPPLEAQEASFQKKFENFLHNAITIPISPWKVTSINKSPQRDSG
Sequence of Insulin receptor-related protein (Homo sapiens) (P14616 747-1297 limits assumed): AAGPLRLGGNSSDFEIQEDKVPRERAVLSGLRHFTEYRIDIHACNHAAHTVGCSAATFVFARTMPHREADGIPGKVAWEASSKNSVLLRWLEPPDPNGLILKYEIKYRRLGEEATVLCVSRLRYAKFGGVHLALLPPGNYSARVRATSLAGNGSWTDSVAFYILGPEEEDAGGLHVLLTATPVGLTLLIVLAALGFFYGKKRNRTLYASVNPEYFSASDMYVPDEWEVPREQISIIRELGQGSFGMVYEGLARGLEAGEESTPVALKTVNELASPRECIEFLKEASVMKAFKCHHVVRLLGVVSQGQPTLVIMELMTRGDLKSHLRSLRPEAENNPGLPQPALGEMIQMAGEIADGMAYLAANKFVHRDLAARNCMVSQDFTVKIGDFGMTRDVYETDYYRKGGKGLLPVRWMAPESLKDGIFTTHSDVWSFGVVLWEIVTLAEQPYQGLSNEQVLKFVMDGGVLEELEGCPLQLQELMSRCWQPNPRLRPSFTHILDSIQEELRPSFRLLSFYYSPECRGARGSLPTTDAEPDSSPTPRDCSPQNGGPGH
Sequence of Serine/threonine-protein kinase pim-1 (Homo sapiens) (P11309 whole entry, looked up): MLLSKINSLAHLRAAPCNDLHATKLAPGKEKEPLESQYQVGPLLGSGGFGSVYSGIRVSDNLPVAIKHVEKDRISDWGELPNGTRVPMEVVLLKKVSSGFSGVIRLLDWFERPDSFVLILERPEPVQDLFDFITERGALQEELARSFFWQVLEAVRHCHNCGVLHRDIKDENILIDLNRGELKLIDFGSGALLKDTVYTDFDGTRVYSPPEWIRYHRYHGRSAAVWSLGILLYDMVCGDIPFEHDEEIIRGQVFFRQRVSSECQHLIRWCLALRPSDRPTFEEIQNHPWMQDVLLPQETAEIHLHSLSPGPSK
Sequence of Serine/threonine-protein kinase Nek6 (Homo sapiens) (Q9HC98 whole entry): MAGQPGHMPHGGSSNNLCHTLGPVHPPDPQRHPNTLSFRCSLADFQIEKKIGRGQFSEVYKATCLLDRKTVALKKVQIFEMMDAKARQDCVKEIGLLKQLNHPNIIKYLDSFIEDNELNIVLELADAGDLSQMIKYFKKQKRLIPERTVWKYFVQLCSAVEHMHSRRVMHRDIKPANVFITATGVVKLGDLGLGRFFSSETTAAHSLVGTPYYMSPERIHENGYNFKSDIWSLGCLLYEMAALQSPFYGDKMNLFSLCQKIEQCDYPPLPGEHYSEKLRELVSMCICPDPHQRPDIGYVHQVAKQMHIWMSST
Sequence of Myosin light chain kinase, smooth muscle (Homo sapiens) (Q15746 whole entry): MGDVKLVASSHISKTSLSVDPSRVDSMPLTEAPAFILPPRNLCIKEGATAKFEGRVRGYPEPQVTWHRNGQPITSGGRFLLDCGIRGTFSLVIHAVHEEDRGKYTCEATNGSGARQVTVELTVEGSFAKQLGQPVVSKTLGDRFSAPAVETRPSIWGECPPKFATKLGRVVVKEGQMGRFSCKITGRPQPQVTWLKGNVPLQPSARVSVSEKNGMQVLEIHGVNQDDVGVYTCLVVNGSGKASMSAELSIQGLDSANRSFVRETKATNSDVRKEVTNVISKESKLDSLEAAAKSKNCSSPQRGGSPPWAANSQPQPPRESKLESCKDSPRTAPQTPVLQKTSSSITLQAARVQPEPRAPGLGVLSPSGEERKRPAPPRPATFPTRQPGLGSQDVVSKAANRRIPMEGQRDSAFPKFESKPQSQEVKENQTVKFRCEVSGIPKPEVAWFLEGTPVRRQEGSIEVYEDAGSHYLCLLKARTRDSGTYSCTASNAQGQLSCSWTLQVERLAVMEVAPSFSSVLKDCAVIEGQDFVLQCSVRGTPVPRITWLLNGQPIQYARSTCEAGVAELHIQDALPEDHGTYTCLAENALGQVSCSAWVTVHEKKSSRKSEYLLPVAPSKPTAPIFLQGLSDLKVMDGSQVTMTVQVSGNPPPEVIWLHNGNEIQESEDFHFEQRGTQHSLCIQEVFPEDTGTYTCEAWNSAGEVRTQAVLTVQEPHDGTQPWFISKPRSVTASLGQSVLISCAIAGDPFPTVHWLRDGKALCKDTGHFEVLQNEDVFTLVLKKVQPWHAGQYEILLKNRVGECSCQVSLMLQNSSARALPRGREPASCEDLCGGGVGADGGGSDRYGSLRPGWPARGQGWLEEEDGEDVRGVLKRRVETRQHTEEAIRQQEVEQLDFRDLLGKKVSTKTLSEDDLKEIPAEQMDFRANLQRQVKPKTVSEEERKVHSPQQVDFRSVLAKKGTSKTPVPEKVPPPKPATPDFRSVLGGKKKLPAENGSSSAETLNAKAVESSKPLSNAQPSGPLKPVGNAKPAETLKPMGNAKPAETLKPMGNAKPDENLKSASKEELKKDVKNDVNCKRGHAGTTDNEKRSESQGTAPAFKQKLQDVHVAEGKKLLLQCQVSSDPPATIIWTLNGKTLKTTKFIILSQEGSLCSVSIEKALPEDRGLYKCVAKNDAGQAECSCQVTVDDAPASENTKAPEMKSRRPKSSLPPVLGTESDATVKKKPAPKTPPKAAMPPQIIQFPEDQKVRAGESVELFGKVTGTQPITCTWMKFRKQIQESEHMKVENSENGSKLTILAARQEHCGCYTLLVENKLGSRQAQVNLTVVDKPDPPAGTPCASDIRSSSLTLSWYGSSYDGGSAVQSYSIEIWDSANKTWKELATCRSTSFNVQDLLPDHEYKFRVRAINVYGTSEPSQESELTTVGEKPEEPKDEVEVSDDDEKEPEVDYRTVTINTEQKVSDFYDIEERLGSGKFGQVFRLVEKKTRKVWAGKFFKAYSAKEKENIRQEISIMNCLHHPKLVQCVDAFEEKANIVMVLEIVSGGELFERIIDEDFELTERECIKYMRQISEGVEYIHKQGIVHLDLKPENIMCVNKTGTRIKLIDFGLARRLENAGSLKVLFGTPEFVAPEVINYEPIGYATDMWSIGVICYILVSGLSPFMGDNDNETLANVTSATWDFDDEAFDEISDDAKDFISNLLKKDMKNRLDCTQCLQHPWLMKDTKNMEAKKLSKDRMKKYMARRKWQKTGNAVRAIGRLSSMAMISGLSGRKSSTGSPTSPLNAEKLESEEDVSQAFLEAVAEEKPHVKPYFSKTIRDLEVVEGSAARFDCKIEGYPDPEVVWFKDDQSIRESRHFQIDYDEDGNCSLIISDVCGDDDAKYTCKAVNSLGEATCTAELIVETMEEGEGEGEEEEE

Q: For `CCn1c(-c2nonc2N)nc2cnc(Oc3cccc(NC(=O)c4ccc(OCCN5CCOCC5)cc4)c3)cc21` [GSK-269962A], which inhibition [1] is on record?
A: Its inhibition is 61%.

Q: What about the residual activity [2] of the same compound?
A: Its residual activity is 31%.

Q: What does the source list for `O=S(=O)(c1cccc2cnccc12)N1CCCNCC1` [FASUDIL]?
A: residual activity [3]: 69%; residual activity [4]: 107%; residual activity [5]: 120%; residual activity [6]: 33%; residual activity [7]: 66%; residual activity [8]: 111%

Q: How did the residual activity [3] turn out when `C[C@@H](N)[C@H]1CC[C@H](C(=O)Nc2ccncc2)CC1` was run?
A: The residual activity was 50%.

Q: What about the residual activity [4] of the same compound?
A: Its residual activity is 80%.

Q: What about the residual activity [5] of the same compound?
A: The residual activity was 81%.

Q: What about the residual activity [6] of the same compound?
A: Its residual activity is 52%.

Q: What about the residual activity [7] of the same compound?
A: The residual activity was 70%.

Q: And the residual activity [8]?
A: Its residual activity is 101%.

Q: What does the source list for `CC1=C(C(=O)Nc2cc3cn[nH]c3cc2F)C(c2ccc(C(F)(F)F)cc2)CC(=O)N1` (stereo unspecified)?
A: inhibition [1]: 106%; residual activity [2]: 89%
